“Also recorded” adds a separate entry of the source.
How the values were obtained:
Assay type in all cases: in vivo, human (patient-derived), mouse host
[1] = tested on: primary duodenal cancer cells; assay: method of the present invention, drug screening on primary duodenal cancer cells from a patient; conditions: primary tumor tissue of duodenal ampullary tumor patient, FIG. 9
Source text: 4 to 5-week old female Nu/Nu mice was ordered from the supplier (purchased from Beijing Vital River Laboratory Animal Technology Co., Ltd.) and raised in SPF grade animal room. Before the experiment, the animal was adapted for at least three days. Freshly collected tumor samples obtained from surgery or from mouse PDX models containing tumor cells from patient were kept in a storage tube and transported to the laboratory on ice in the shortest possible time. After removing the non-tumor tissues and necrotic tissues in the biosafety cabinet, the tumor samples were cut into cubes of 1-3 mm^2, rinsed with HBSS. […] Collected cell suspension and centrifuged the suspension at 1000 rpm for 3 minutes to remove supernatant, and re-suspended in PBS containing 1% PBS; counted cell numbers and adjusted cell density to 1×10^8/ml. […] Counted the number of cells, and adjusted the cell density to 1-10×10^5/ml. […] 5-14 day after administration, the mice were killed and cell viability was detected by quantitative analysis of ATP by CellTiter-Glo luminescence in the modified polyvinylidene fluoride tubes. According to the viability of tumor cells in the control group, the percentages of cell viable proliferation (t/c %) in the experiment groups were calculated, and then the efficacy of the corresponding drugs was evaluated. […] The viability of the tumor cells was measured.

[2] = tested on: patient-derived gastric cancer cells in GAPF155; assay: traditional PDX method, mouse PDX model GAPF155; conditions: FIG. 2
Source text: (§1) The PDX model well maintains the biological characteristics the of primary tumor cells of a patient. The model is obtained by transplanting a fresh tumor tissue of a patient into an immune deficient mouse (e.g. a nude mouse or a severe combined immune deficiency (SCID) mouse). Such models maintain the genetic characteristics of the patient as well as tumor heterogeneity. Presently, the major difficulty of using PDX model for individualized precision medical treatment is the lengthy time period spent on modelling and sensitivity test, and the low success rate for modelling. For example, primary cell transplantation takes 2-3 months, and the drug sensitivity test takes 3-4 months. In addition, PDX modelling requires a high level of technical skills. Surgeons, histologists and researchers need to cooperate closely after the tumor sample is obtained from the patient. Therefore, how to improve the method for determining the sensitivity of tumor cells to an anti-tumor drug by using a PDX model becomes an urgent issue. The method for PDX mouse modelling is known in the art. […] The sensitivity of the patient-derived gastric cancer cells in GAPF155 to S-1 was detected by the traditional PDX method and the method of the present invention (FIG. 2 and FIG. 3).

[3] = tested on: patient-derived gastric cancer cells in GAPF155; assay: method of the present invention (implanted PVDF tube, CellTiter-Glo ATP viability), GAPF155 cells; conditions: FIG. 3
Method: The viability of the tumor cells was measured. Mouse PDX model GAPF155 was obtained by implanting primary gastric cancer cells into mice. After 2 months of feeding, patient-derived gastric cancer cells were obtained from GAPF155. The sensitivity of the patient-derived gastric cancer cells in GAPF155 to S-1 was detected by the traditional PDX method and the method of the present invention (FIG. 2 and FIG. 3).

[4] = tested on: patient-derived gastric cancer cells from GAPF157; assay: traditional PDX method, mouse PDX model GAPF157; conditions: FIG. 4
Source text: as §1, with “(FIG. 4” for “(FIG. 2”, “FIG. 5).” for “FIG. 3).”

[5] = tested on: patient-derived gastric cancer cells from GAPF157; assay: method of the present invention (implanted PVDF tube, CellTiter-Glo ATP viability), GAPF157 cells; conditions: FIG. 5
Method: The viability of the tumor cells was measured. Mouse PDX model […] was obtained by implanting primary gastric cancer cells into mice. After 2 months of feeding, patient-derived gastric cancer cells were obtained from GAPF157. The sensitivity of the patient-derived gastric cancer cells in […] to S-1 was detected by the traditional PDX method and the method of the present invention (FIG. 4 and FIG. 5).

| Compound | response to drug in drug screening [1] | sensitivity of the tumor cells to the drug / anti-tumor activity [2] | sensitivity of the tumor cells to the drug / anti-tumor activity [3] | sensitivity of the tumor cells to the drug / anti-tumor activity [4] | sensitivity of the tumor cells to the drug / anti-tumor activity [5] |
| --- | --- | --- | --- | --- | --- |
| Nc1ccn([C@@H]2O[C@H](CO)[C@@H](O)C2(F)F)c(=O)n1 [gemcitabine] | well responded |  |  |  |  |
| Tegafur [S-1] |  | sensitive; also recorded: good anti-tumor activity | sensitive; also recorded: good anti-tumor activity | sensitive; also recorded: good anti-tumor activity | sensitive; also recorded: good anti-tumor activity |

Reference: patent US20250093330A1, “METHOD AND DEVICE FOR DRUG SCREENING” (SHANGHAI LIDE BIOTECH CO., LTD., priority 2021, published 2025)
